Test results reported in patent US20240083844A1, “KINASE INHIBITORS AND USES THEREOF” (ABM Therapeutics Corporation, priority 2020, published 2024).

system: HT-29 colon cancer cells; experiment: Antiproliferation assay in HT-29 cells (CellTiter Glo); format: cell-based; conditions: Homo sapiens, 72 hours or 144 hours
Method: [The source words this procedure for another cell line and reports this cell line under the same test.] (§1) In vitro anti-proliferation study of test compounds in A375 cell line by CellTiter Glo. The cells were routinely maintained as a monolayer culture in corresponding culture medium, at 37° C. with 5% CO2 in air.
(§2) Exponential growth cells were harvested by trypsin-EDTA digestion. Cell pellet was re-suspended in fresh culture medium, and the concentration adjusted as needed (the cell density per well was listed in following form). The cell viability was over 98% by Trypan blue staining. Cells were incoluated into 96 wells plates according to the plate map (90 μL/well). Plates were incubated at 37° C. and 5% CO2 overnight. The next day, the 10×compound containing medium was prepared according to the plate map. 10 μL of 10×compound containing medium was transferred into each well of the assay plates (the final DMSO concentration was 0.5%). The medium was gently mixed and incubated at 37° C. and 5% CO2 for another 72 hours or 144 hours.
(§3) Reagent was prepared according to the manufacture's instruction. 50 μL CellTiter-Glo Reagent were added in each well. Contents were mixed for 2 minutes on an orbital shaker to induce cell lysis. The plate was incubated at room temperature for 10 minutes to stabilize luminescent signal. 100 μL of reaction contents were transferred of each well from the clear plates into white walled/white opaque 96-well plates. Luminescence was recorded on Envision.
(§4) Using the luminescence measurements [time zero (T0), control growth (C), and test growth in the presence of drug at the six concentration levels (Ti)], the percentage growth was calculated at each of the drug concentrations levels.
(§5) Percentage growth inhibition (GI) was calculated as: GI (%)=[(Ti−T0)/(C-T0)]×100 for concentrations for which Ti>=T0, and GI (%)=[(Ti−T0)/T0]×100 for concentrations for which Ti<T0. Data were analyzed using the XLFit (Excel) tool, fitting to a 4-parameter equation to generate concentration response curves. Concentration of compound that inhibits 50% of control cell growth (GI50) was back-interpolated when y=50% of net growth of DMSO treated control wells using nonlinear regression with the equation: f(x) 205 [fit=(A+((B−A)/(1+((C/x)^D))))], where A is the minimum response (Ymin), B is the maximum response (Ymax), C is the inflection point of the curve (Re GI50) and D is the Hill coefficient. Growth inhibition of 50% (GI50) was calculated at the 50% Growth inhibition on the curve. Index values were the sum of Inhibition rate (IR) at each tested compound concentration.

| GI50 [µM] | Structure (SMILES) |
| --- | --- |
| < 0.1 | O=C(NC1CNC1)c1ccncc1Nc1ccc(I)cc1F [Compound 15, N-(azetidin-3-yl)-3-((2-fluoro-4-iodophenyl)amino)isonicotinamide] |

system: P-glycoprotein (MDR1); experiment: MDCK-MDR1 permeability assay; format: in vitro ADME, canine; conditions: dog; MDCK-MDR1, Papp(B−A)/Papp(A−B)
Method: MDCK-MDR1 cells originated from transfection of Madin Darby canine kidney (MDCK) cells with the MDR1 gene, the gene encoding for the efflux protein, P-glycoprotein. This cell line is ideal for identifying substrates of P-gp, with or without an inhibitor. The cells were seeded on a Multiscreen™ plate to form a confluent monolayer over 4 days prior to the experiment. On day 4, the test compound (1-30 μM concentration) was added to the apical side of the membrane and the transport of the compound across the monolayer was monitored over a 120 minutes time period. To study drug efflux, it was also necessary to investigate transport of the compound from the basolateral compartment to the apical compartment and calculate an efflux ratio.
The permeability coefficient (Papp) was calculated from the following equation: […]
where dQ/dt is the rate of permeation of the drug across the cells, C0 is the donor compartment concentration at time zero and A is the area of the cell monolayer.
An efflux ratio was calculated from the mean apical to basolateral (A−B) Papp data and basolateral to apical (B−A) Papp data.
Efflux Ratio=Papp(B−A)/Papp(A−B)

| efflux ratio at 120 min | Structure (SMILES) |
| --- | --- |
| 0.58 | CN1CC(NC(=O)c2c(F)cncc2Nc2ccc(I)cc2F)C1 [Compound 7, 3-fluoro-5-((2-fluoro-4-iodophenyl)amino)-N-(1-methylazetidin-3-yl)isonicotinamide] |
| 11.8 | O=C(NC1CNC1)c1c(Cl)cncc1Nc1ccc(I)cc1F [Compound 13, N-(azetidin-3-yl)-3-chloro-5-((2-fluoro-4-iodophenyl)amino)isonicotinamide] |

same assay, conditions: dog; MDCK-MDR1, apical to basolateral, 1-30 μM, 120 minutes

| Papp A→B at 120 min [×10⁻⁶ cm/s] | Structure (SMILES) |
| --- | --- |
| 32.5 | CN1CC(NC(=O)c2c(F)cncc2Nc2ccc(I)cc2F)C1 [Compound 7, 3-fluoro-5-((2-fluoro-4-iodophenyl)amino)-N-(1-methylazetidin-3-yl)isonicotinamide] |
| 4.3 | O=C(NC1CNC1)c1c(Cl)cncc1Nc1ccc(I)cc1F [Compound 13, N-(azetidin-3-yl)-3-chloro-5-((2-fluoro-4-iodophenyl)amino)isonicotinamide] |

same assay, conditions: dog; MDCK-MDR1, basolateral to apical, 1-30 μM, 120 minutes

| Papp B→A at 120 min [×10⁻⁶ cm/s] | Structure (SMILES) |
| --- | --- |
| 19 | CN1CC(NC(=O)c2c(F)cncc2Nc2ccc(I)cc2F)C1 [Compound 7, 3-fluoro-5-((2-fluoro-4-iodophenyl)amino)-N-(1-methylazetidin-3-yl)isonicotinamide] |
| 50.8 | O=C(NC1CNC1)c1c(Cl)cncc1Nc1ccc(I)cc1F [Compound 13, N-(azetidin-3-yl)-3-chloro-5-((2-fluoro-4-iodophenyl)amino)isonicotinamide] |

system: A375 melanoma cells; experiment: Antiproliferation assay in A375 cell line by CellTiter Glo; format: cell-based; conditions: Homo sapiens, A-375, 72 hours or 144 hours
Method: as §1, §2, §3, §4, §5

| Structure (SMILES) | GI50 [µM] |
| --- | --- |
| O=C(NC1CCNC1)c1c(F)cc(F)cc1Nc1ccc(I)cc1F (centres unmarked) [Compound 2, 2,4-difluoro-6-((2-fluoro-4-iodophenyl)amino)-N-(pyrrolidin-3-yl)benzamide] | > 1 |
| O=C(NC1CCCNC1)c1c(F)cc(F)cc1Nc1ccc(I)cc1F (centres unmarked) [Compound 3, 2,4-difluoro-6-((2-fluoro-4-iodophenyl)amino)-N-(piperidin-3-yl)benzamide] | > 1 |
| O=C(O)CCN1CC(NC(=O)c2ccncc2Nc2ccc(I)cc2F)C1 [Compound 18, 3-(3-(3-((2-fluoro-4-iodophenyl)amino)isonicotinamido)azetidin-1-yl)propanoic acid] | > 1 |
| O=C(O)CCCN1CC(NC(=O)c2ccncc2Nc2ccc(I)cc2F)C1 [Compound 19, 4-(3-(3-((2-fluoro-4-iodophenyl)amino)isonicotinamido)azetidin-1-yl)butanoic acid] | 0.1 to 1 |
| CC(=O)N1CC(NC(=O)c2c(F)cncc2Nc2ccc(I)cc2F)C1 [Compound 20, N-(1-acetylazetidin-3-yl)-3-fluoro-5-((2-fluoro-4-iodophenyl)amino)isonicotinamide] | > 1 |

Other lines, results leading:

| GI50 [µM] | Structure (SMILES) |
| --- | --- |
| < 0.1 | CN1CC(NC(=O)c2c(F)cncc2Nc2ccc(I)cc2F)C1 [Compound 7, 3-fluoro-5-((2-fluoro-4-iodophenyl)amino)-N-(1-methylazetidin-3-yl)isonicotinamide] |
| < 0.1 | O=C(NC1CNC1)c1c(Cl)cncc1Nc1ccc(I)cc1F [Compound 13, N-(azetidin-3-yl)-3-chloro-5-((2-fluoro-4-iodophenyl)amino)isonicotinamide] |
